Results on 22 molecules are retold here after patent US20240262826A1, “WILD TYPE KIT INHIBITORS” (Blueprint Medicines Corporation, priority 2022, published 2024).

In the assay the target is wild type c-kit (Homo sapiens (Human), UniProt P10721). In words: PathScan phospho c-kit (Tyr719) sandwich ELISA in SCF-stimulated M-07e cells (pKIT assay). Particulars: ELISA assay (values not marked *). The assay is classed as cell-based. From the text: The ability of compounds of the disclosure (described herein as test compounds) to inhibit autophosphorylation of wild type c-kit was measures using either a PathScan phospho c-kit (Tyr719) sandwich ELISA (CST #7298) or a Phospho c-Kit (Tyr721) Assay Whole Cell Lysate Kit (MSD: 515DPD/catalog number K15119D-2).
Chain of wild type c-kit (P10721 26-976): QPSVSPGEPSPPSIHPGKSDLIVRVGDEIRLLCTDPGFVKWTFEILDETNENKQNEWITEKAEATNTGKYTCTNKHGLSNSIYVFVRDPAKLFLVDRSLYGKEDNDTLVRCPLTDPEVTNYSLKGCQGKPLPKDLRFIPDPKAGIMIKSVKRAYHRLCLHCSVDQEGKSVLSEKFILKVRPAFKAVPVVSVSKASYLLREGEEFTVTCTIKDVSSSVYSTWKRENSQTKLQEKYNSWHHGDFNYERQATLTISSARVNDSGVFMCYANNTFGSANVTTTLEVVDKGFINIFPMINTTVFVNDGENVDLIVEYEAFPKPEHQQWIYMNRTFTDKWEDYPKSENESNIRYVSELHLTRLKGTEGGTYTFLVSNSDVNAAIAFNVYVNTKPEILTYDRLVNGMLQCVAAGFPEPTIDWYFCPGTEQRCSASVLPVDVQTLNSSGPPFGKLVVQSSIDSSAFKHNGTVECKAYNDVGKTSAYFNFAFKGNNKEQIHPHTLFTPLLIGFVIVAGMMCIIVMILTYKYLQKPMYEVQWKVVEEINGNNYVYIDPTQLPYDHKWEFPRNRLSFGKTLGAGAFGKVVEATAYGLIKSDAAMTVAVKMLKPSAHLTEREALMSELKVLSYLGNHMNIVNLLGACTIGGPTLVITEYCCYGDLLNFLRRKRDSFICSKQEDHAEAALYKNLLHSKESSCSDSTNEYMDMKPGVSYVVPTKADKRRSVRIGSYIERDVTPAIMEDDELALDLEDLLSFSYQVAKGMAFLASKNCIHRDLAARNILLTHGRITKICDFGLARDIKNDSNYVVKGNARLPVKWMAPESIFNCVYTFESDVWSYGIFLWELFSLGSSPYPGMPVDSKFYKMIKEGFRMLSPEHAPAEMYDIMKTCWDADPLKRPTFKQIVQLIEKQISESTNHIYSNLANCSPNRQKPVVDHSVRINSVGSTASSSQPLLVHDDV
For the PathScan phospho c-kit (Tyr719) sandwich ELISA: M-07e cells were resuspended at 2×10^6 cells/mL in phenol red free, serum-free, GM-CSF-free Iscove's Modified Dulbecco's Medium (IMDM) media with 1% Penicillin-Streptomycin. The cells were then dispensed into the wells of a U-bottom, 96-well plate at 50 uL per well using a multichannel pipet. The plate was allowed to incubate at 37° C. in a humidified tissue culture incubator for 4 hours.
After 4 hours of incubation, each well was dosed with 6.25 uL of test compound at a final DMSO concentration of 0.25% for 60 min at 37° C. to generate an 8-point dose concentration series of test compounds in duplicate. Cells were then incubated for 1 hour at 37° C. in a humidified tissue culture incubator. Next, human SCF at 500 ng/mL was added to the appropriate wells at 6.25 uL/well and the plate was shaken at 450 rpm at room temperature for 10 minutes. AlphaLISA 5× Lysis Buffer supplemented with 1× protease and phosphatase inhibitor was then added at 16 uL/well. The plate was sealed with an adherent cover and shaken at 4° C. at 600 rpm for 30 minutes. After this period of lysis, the plate was stored at −80° C.
When the 96-well plate containing M07e lysates was ready to be processed, the plate was brought to room temperature and 40 μl from each well was transferred to the wells of a PathScan Phospho-c-Kit (Tyr719) Sandwich ELISA plate (CST, Catalog #7298). The ELISA plate was sealed with an adherent cover and incubated for 2 hours at 37° C. Next, the wells were washed 4 times with the provided 1× Wash Buffer, and 100 uL/well of reconstituted Detection Antibody was added to each well, the plate sealed with an adherent cover, and incubated at 37° C. for 1 hour. The wash procedure was repeated and 100 uL/well of reconstituted HRP-Linked secondary antibody was added. The plate was sealed with an adherent cover and incubated at 37° C. for 1 hour. The wash procedure was repeated and 100 uL/well of TMB Substrate was added. The plate was incubated for 10 minutes at room temperature or until the positive reaction elicited a blue color in the appropriate wells. 100 uL/well of STOP solution was added and shaken gently for a few seconds a microplate reader or conventional spectrophotometer e.g., a Perkin Elmer Envision multimode plate reader, part #2105-0010.
An IC50 was calculated using a 4-parameter logistic nonlinear regression.
The molecule `COC[C@@](C)(O)Cn1cc(-c2ccn3ncc(C(=O)Nc4cc(-c5nnn(C6CC6)n5)c(F)cc4C)c3c2)c(C)n1` (single isomer, unassigned) [Example 249, (S)-N-(5-(2-cyclopropyl-2H-tetrazol-5-yl)-4-fluoro-2-methylphenyl)-5-(1-(2-hydroxy-3-methoxy-2-methylpropyl)-3-methyl-1H-pyrazol-4-yl)pyrazolo[1,5-a]pyridine-3-carboxamide or (R)-N-(5-(2-cyclopropyl-2H-tetrazol-5-yl)-4-fluoro-2-methylphenyl)-5-(1-(2-hydroxy-3-methoxy-2-methylpropyl)-3-methyl-1H-pyrazol-4-yl)pyrazolo[1,5-a]pyridine-3-carboxamide] had an IC50 of 0.7 nM.
Next, `COC(=O)N1CC(n2nnc(-c3ccc(C)c(NC(=O)c4cnn5cc(N6CCOCC6)ccc45)c3)n2)C1` [Example 159, methyl 3-(5-(4-methyl-3-(6-morpholinopyrazolo[1,5-a]pyridine-3-carboxamido)phenyl)-2H-tetrazol-2-yl)azetidine-1-carboxylate]: 20.1 nM; `CCn1nnc(-c2ccc(Cl)c(NC(=O)c3cnn4ccc(-c5c(C)nn(C[C@H](C)O)c5C)cc34)c2)n1` [Example 253, (S)-N-(2-chloro-5-(2-ethyl-2H-tetrazol-5-yl)phenyl)-5-(1-(2-hydroxypropyl)-3,5-dimethyl-1H-pyrazol-4-yl)pyrazolo[1,5-a]pyridine-3-carboxamide]: 0.4 nM.
Molecule `COC(=O)N1CC(n2nnc(-c3ccc(C)c(NC(=O)c4cnn5ccccc45)c3)n2)C1` [Example 191, methyl 3-(5-(4-methyl-3-(pyrazolo[1,5-a]pyridine-3-carboxamido)phenyl)-2H-tetrazol-2-yl)azetidine-1-carboxylate] gave an IC50 of 41.3 nM.
Regarding `Cc1cc(F)c(-c2nnn(C3CC(F)(F)C3)n2)cc1NC(=O)c1cnn2ccc(N3CCOCC3)cc12` [Example 59, N-(5-(2-(3,3-difluorocyclobutyl)-2H-tetrazol-5-yl)-4-fluoro-2-methylphenyl)-5-morpholinopyrazolo[1,5-a]pyridine-3-carboxamide], the IC50 worked out at 4.5 nM.
In turn, `COCCNc1ccn2ncc(C(=O)Nc3cc(-c4nnn(C5CC(F)(F)C5)n4)c(F)cc3C)c2c1` [Example 105, N-(5-(2-(3,3-difluorocyclobutyl)-2H-tetrazol-5-yl)-4-fluoro-2-methylphenyl)-5-((2-methoxyethyl)amino)pyrazolo[1,5-a]pyridine-3-carboxamide] displayed a half-maximal inhibitory concentration (IC50) of 3.5 nM.
As for `CCNc1ccn2ncc(C(=O)Nc3cc(-c4nnn(C5CN(C(=O)OC)C5)n4)ccc3C)c2c1` [Example 127, methyl 3-(5-(3-(5-(ethylamino)pyrazolo[1,5-a]pyridine-3-carboxamido)-4-methylphenyl)-2H-tetrazol-2-yl)azetidine-1-carboxylate], half-maximal inhibition (IC50) required 30.2 nM.
`Cn1nnc(-c2ccc(F)c(NC(=O)c3cnn4ccc(-c5cnn(CC(C)(C)O)c5)cc34)c2)n1` [Example 213, N-(2-fluoro-5-(2-methyl-2H-tetrazol-5-yl)phenyl)-5-(1-(2-hydroxy-2-methylpropyl)-1H-pyrazol-4-yl)pyrazolo[1,5-a]pyridine-3-carboxamide] returned an IC50 of 16 nM.
For the molecule `COCCNc1ccn2ncc(C(=O)Nc3cc(-c4nnn(C5CC5)n4)ccc3C)c2c1` [Example 88, N-(5-(2-cyclopropyl-2H-tetrazol-5-yl)-2-methylphenyl)-5-((2-methoxyethyl)amino)pyrazolo[1,5-a]pyridine-3-carboxamide], the half-maximal inhibitory concentration (IC50) stood at 3.2 nM.
`Cc1nn(CC(C)(C)O)cc1-c1ccn2ncc(C(=O)Nc3cc(-c4nnn(C5CC5)n4)ccc3Cl)c2c1` [Example 250, N-(2-chloro-5-(2-cyclopropyl-2H-tetrazol-5-yl)phenyl)-5-(1-(2-hydroxy-2-methylpropyl)-3-methyl-1H-pyrazol-4-yl)pyrazolo[1,5-a]pyridine-3-carboxamide] gave a 50% inhibitory concentration (IC50) of 0.4 nM.
In the case of `O=C(Nc1cc(-c2nnn(CC3CC(F)(F)C3)n2)ccc1Cl)c1cnn2ccccc12` [Example 19, N-(2-chloro-5-(2-((3,3-difluorocyclobutyl)methyl)-2H-tetrazol-5-yl)phenyl)pyrazolo[1,5-a]pyridine-3-carboxamide] it was 7.5 nM; in that of `O=C(Nc1cc(-c2nnn(C3CC3)n2)ccc1Cl)c1cnn2ccc(-c3cnn(CC4(O)CCOCC4)c3)cc12` [Example 236, N-(2-chloro-5-(2-cyclopropyl-2H-tetrazol-5-yl)phenyl)-5-(1-((4-hydroxytetrahydro-2H-pyran-4-yl)methyl)-1H-pyrazol-4-yl)pyrazolo[1,5-a]pyridine-3-carboxamide], 0.6 nM.
In the case of `O=C(Nc1cc(-c2nnn(C3CC(F)(F)C3)n2)ccc1Cl)c1cnn2ccc(N3CCOCC3)cc12` [Example 169, N-(2-chloro-5-(2-(3,3-difluorocyclobutyl)-2H-tetrazol-5-yl)phenyl)-5-morpholinopyrazolo[1,5-a]pyridine-3-carboxamide] it was 4.7 nM; in that of `Cc1cc(C)c(-c2nnn(CC3CC3(F)F)n2)cc1NC(=O)c1cnn2ccccc12` (stereo not shown) [Example 21, N-(5-(2-((2,2-difluorocyclopropyl)methyl)-2H-tetrazol-5-yl)-2,4-dimethylphenyl)pyrazolo[1,5-a]pyridine-3-carboxamide], 6.4 nM; in that of `Cc1ccc(-c2nnn(CC3CC4(CCC4)CO3)n2)cc1NC(=O)c1cnn2ccccc12` (stereo not shown) [Example 9, N-(5-(2-((6-oxaspiro[3.4]octan-7-yl)methyl)-2H-tetrazol-5-yl)-2-methylphenyl)pyrazolo[1,5-a]pyridine-3-carboxamide], 4.8 nM.
In the case of `CCOC(=O)N1CC(n2nnc(-c3ccc(C)c(NC(=O)c4cnn5ccc(N6CCOCC6)cc45)c3)n2)C1` [Example 77, ethyl 3-(5-(4-methyl-3-(5-morpholinopyrazolo[1,5-a]pyridine-3-carboxamido)phenyl)-2H-tetrazol-2-yl)azetidine-1-carboxylate] it was 60.7 nM; in that of `Cc1ccc(-c2nnn(C3CN(S(=O)(=O)CCC(F)F)C3)n2)cc1NC(=O)c1cnn2ccccc12` [Example 184, N-(5-(2-(1-((3,3-difluoropropyl)sulfonyl)azetidin-3-yl)-2H-tetrazol-5-yl)-2-methylphenyl)pyrazolo[1,5-a]pyridine-3-carboxamide], 6.2 nM.
`Cc1ccc(-c2nnn(C)n2)cc1NC(=O)c1cnn2ccc(-c3cnn(CC(C)(C)O)c3)cc12` [Example 48, 5-(1-(2-hydroxy-2-methylpropyl)-1H-pyrazol-4-yl)-N-(2-methyl-5-(2-methyl-2H-tetrazol-5-yl)phenyl)pyrazolo[1,5-a]pyridine-3-carboxamide] displayed a concentration for half-maximal inhibition (IC50) of 3.6 nM.
Next, `Cc1nn([C@H](C)[C@H](C)O)cc1-c1ccn2ncc(C(=O)Nc3cc(-c4nnn(C5CC5)n4)c(F)cc3Cl)c2c1` (single isomer, unassigned) [Example 289, N-(2-chloro-5-(2-cyclopropyl-2H-tetrazol-5-yl)-4-fluorophenyl)-5-(1-((2R,3S)-3-hydroxybutan-2-yl)-3-methyl-1H-pyrazol-4-yl)pyrazolo[1,5-a]pyridine-3-carboxamide or N-(2-chloro-5-(2-cyclopropyl-2H-tetrazol-5-yl)-4-fluorophenyl)-5-(1-((2S,3R)-3-hydroxybutan-2-yl)-3-methyl-1H-pyrazol-4-yl)pyrazolo[1,5-a]pyridine-3-carboxamide]: 0.6 nM.
In the case of `COC(=O)N1CC(n2nnc(-c3ccc(C)c(NC(=O)c4cnn5ccc(N6CCC(F)(F)CC6)cc45)c3)n2)C1` [Example 147, methyl 3-(5-(3-(5-(4,4-difluoropiperidin-1-yl)pyrazolo[1,5-a]pyridine-3-carboxamido)-4-methylphenyl)-2H-tetrazol-2-yl)azetidine-1-carboxylate] it was 31.6 nM.
Next, `COC(=O)N1CC(n2nnc(-c3ccc(C)c(NC(=O)c4cnn5ccc(N6CCC[C@H](O)C6)cc45)c3)n2)C1` [Example 70, methyl (S)-3-(5-(3-(5-(3-hydroxypiperidin-1-yl)pyrazolo[1,5-a]pyridine-3-carboxamido)-4-methylphenyl)-2H-tetrazol-2-yl)azetidine-1-carboxylate]: 53.1 nM; `COC(=O)N1CC(n2nnc(-c3ccc(Cl)c(NC(=O)c4cnn5ccccc45)c3)n2)C1` [Example 192]: 10.6 nM.

A word on the IC50: it is the concentration that gives 50% inhibition. Read a low IC50 as higher potency.
